Where two headings read alike, the source gives them in different places.
Columns and labels:
Type in all cases: cell-based
Leishmania promastigotes = Leishmania promastigotes Assay; conditions: promastigotes, 3H-thymidine uptake, read-out: Leishmania IC50 ± SD
Procedure: A WHO reference vaccine strain of L. major originally isolated from a patient in Iran and a Kenyan strain of L. donovani (MHOM(/KE/85/NLB 274) were cultured in medium 199 containing 0.02 mg/ml gentamycin, 25 mM Hepes, 4 mM L-glutamine, and 20% heat inactivated fetal calf serum (FCS). Incubation was carried out at 26° C. Promastigotes were harvested on day 3 and 6 of the culture and used for the parasite growth inhibition.
The effect of the test compounds on promastigotes was assessed by a method similar to the one described by Pearson et al., by incubating promastigotes (3×10^6/ml) at 26° C. for 2 hrs in the presence of a given compound or the medium alone in 96 wells flat bottom microtiter plates. Following incubation, 100 μCi of 3H-thymidine was added to each well and further incubated for 18 hrs. Promastigotes were then harvested on filter paper by means of a cell harvester, extensively washed with distilled water and counted in a scintillation counter. The promastigotes were also counted microscopically and their flagellar motility was assessed.

human lymphocytes = assay: Lymphocyte Proliferation Assay; conditions: PHA provoked proliferation of human lymphocytes, read-out: Lymphocytes IC50 ± SD
Procedure: Human blood mononuclear cells (BMNC) from heparinized blood were isolated by metrizoate sodium-Ficoll density gradient centrifugation, washed 3 times in RPMI 1640 medium supplemented with 5% FCS and with 400 IU of penicillin plus 400 μg/ml streptomycin. BMNC were resuspended in the medium and cultured in triplicate, 0.63×10^5/ml and 160 μl per vial, in round-bottom microtiter plates with 20 μl of various concentrations of the test compound. Immediately prior to incubation, optimum concentrations of the mitogen phytohaemagglutinin (PHA) and the antigen purified protein derivative of tuberculin (PPD) were added to the cultures in a volume of 20 μl. Unstimulated control cultures were always included. Cultures were incubated for 3 or 7 days. The degree of lymphocyte proliferation was estimated by ^3H-thymidine (1 μCi per well) addition 24 h before the cells were harvested on glass fiber filters by means of a harvesting machine), and ^3H-thymidine incorporation was measured in a liquid scintillation counter. For each set of triplicate values, the median was recorded. Unstimulated cultures were always included as controls.

Plasmodium falciparum = Plasmodium falciparum Assay; conditions: 3-H-hypoxanthine incorporation, 48 hours, read-out: Plasmodium IC50 ± SD
Procedure: The experiments in which compounds were tested for their ability to inhibit parasite growth were performed by a modification of the method originally described by Jensen et al. (1982). 50 μl of parasitized erythrocytes (parasitemia approximately 1%) in a concentration of 5×10^8/ml and 50 μl of RPMI medium containing different concentrations of the test compound was added to each well of a 96 well flat-bottomed microtiter plate. The cultures were then incubated for 48 hours, 24 hours before termination of the culture adding 20 μl of 3-H-hypoxanthine (40 uCi/ml) was added to each well. The cultures were then harvested onto glass fiber filters using a Skatron cell harvester, and the incorporation of 3-H-hypoxanthine into the DNA of dividing parasites was determined by liquid scintillation spectrometry. Control cultures with uninfected erythrocytes and infected erythrocytes in RPMI medium without test compounds were always performed in parallel to the test cultures. In some experiments thin smears of parasite cultures were stained by Giemsa and examined under microscope (×1000). The test compounds described above, were diluted in RPMI medium immediately before use. In the experiments, chloroquine phosphate was used as a positive control as a drug known to inhibit parasite growth.

Structure (SMILES): COc1ccc(/C=C/C(=O)c2ccc(OC)cc2)cc1 [4′,4-OCH3]
- IC50 (Leishmania promastigotes): 106 ± 9 µM
- IC50 (human lymphocytes): 112 ± 8 µM
- IC50 (Plasmodium falciparum): 51 µM

Structure (SMILES): O=C(/C=C/c1ccc(O)cc1)c1ccc(O)cc1 [4′-4-OH]
- IC50 (Leishmania promastigotes): 83 ± 5 µM
- IC50 (human lymphocytes): 59 ± 3 µM
- IC50 (Plasmodium falciparum): 17 µM

Structure (SMILES): O=C(/C=C/c1ccccc1)c1ccc(F)cc1 [4′-F, 4′-fluorochalcone]
- IC50 (Leishmania promastigotes; Leishmania): 15 ± 1 µM
- IC50 (human lymphocytes; Lymphocyte): 23 ± 2 µM
- IC50 (Plasmodium falciparum; Plasmodium falciparum): 51 µM

Structure (SMILES): CCCCCCOc1ccc(C(=O)/C=C/c2ccccc2)cc1 [4′-OC6H13]
- IC50 (Leishmania promastigotes): 62 ± 5 µM
- IC50 (human lymphocytes): 99 ± 7 µM
- IC50 (Plasmodium falciparum): 17 µM

Structure (SMILES): O=C(/C=C/c1ccccc1)c1ccccc1 [Chalcon]
- IC50 (Leishmania promastigotes; Leishmania): 20 ± 1 µM
- IC50 (human lymphocytes; Lymphocyte): 21 ± 2 µM
- IC50 (Plasmodium falciparum; Plasmodium falciparum): 44 µM

Structure (SMILES): COc1c(/C=C/C(=O)c2ccc(O)cc2)ccc(O)c1CC=C(C)C [Licochalcone C, 2-methoxy-3-(3-methyl-2-butenyl)-4,4′-dihydroxychalcone]
- IC50 (Leishmania promastigotes; Leishmania): 55 ± 3 µM
- IC50 (human lymphocytes; Lymphocyte): 53 ± 2 µM
- IC50 (Plasmodium falciparum; Plasmodium falciparum): 16 µM
